# Reference: US10835542B2, “9-aminomethyl minocycline compounds and use thereof in treating community-acquired bacterial pneumonia (CABP)” (Paratek Pharmaceuticals, Inc., priority 2016, dated 2020)
# Columns and labels:
# [1] = Safety population
# [2] = Lung tissue versus plasma concentrations in mice; settings: mouse
# [3] = Phase 1 multiple oral dose study: safety and tolerability; settings: for Most frequent TEAEs: ALT increased, n (%) / Most frequent TEAEs: Diarrhea, n (%) / Most frequent TEAEs: Dizziness, n (%) / Most frequent TEAEs: Nausea, n (%) / Most frequent TEAEs: Vomiting, n (%) / TEAEs leading to early discontinuation of study drug: ALT increased, n (%) / TEAEs leading to early discontinuation of study drug: All, n (%) / TEAEs leading to early discontinuation of study drug: Lipase increased, n (%) / TEAEs leading to early discontinuation of study drug: Nausea, n (%) / TEAEs leading to early discontinuation of study drug: Syncope, n (%) / TEAEs leading to early discontinuation of study drug: Vomiting, n (%) / n (%) of subjects with Any TEAE / n (%) of subjects with Treatment-related TEAE: Safety Population
# [4] = subject who received 450 mg in Period 1 then 300 mg in Period 2
smiles,measurement,setting,value
"CN(C)c1cc(CNCC(C)(C)C)c(O)c2c1C[C@H]1C[C@H]3[C@H](N(C)C)C(O)=C(C(N)=O)C(=O)[C@@]3(O)C(O)=C1C2=O [Compound 1, 9-[(2,2-dimethyl-propylamino)-methyl]-minocycline]",TEAE: Nausea,[1],9 (2.4) n (%)
same,TEAE: Pseudomembranous Colitis,[1],0 n (%)
same,TEAE: Vomiting,[1],10 (2.6) n (%)
same,Total Number of AEs,[1],434
same,Total Number of TEAEs,[1],376
same,Kp,[2],3.7 to 4.4
same,frequency of treatment-related TEAEs,[3]; 300 mg,15.4%
same,median change in alanine aminotransferase (ALT) between baseline and Day 5,[3]; 300 mg,−2.0 IU/L
same,"Most frequent TEAEs: ALT increased, n (%)",[3]; 300 mg (n = 26),0 n (%)
same,"Most frequent TEAEs: Diarrhea, n (%)",[3]; 300 mg (n = 26),0 n (%)
same,"Most frequent TEAEs: Dizziness, n (%)",[3]; 300 mg (n = 26),2 (7.7) n (%)
same,"Most frequent TEAEs: Nausea, n (%)",[3]; 300 mg (n = 26),2 (7.7) n (%)
same,"Most frequent TEAEs: Vomiting, n (%)",[3]; 300 mg (n = 26),2 (7.7) n (%)
same,"TEAEs leading to early discontinuation of study drug: ALT increased, n (%)",[3]; 300 mg (n = 26),0 n (%)
same,"TEAEs leading to early discontinuation of study drug: All, n (%)",[3]; 300 mg (n = 26),1 (3.8) n (%)
same,"TEAEs leading to early discontinuation of study drug: Lipase increased, n (%)",[3]; 300 mg (n = 26),0 n (%)
same,"TEAEs leading to early discontinuation of study drug: Nausea, n (%)",[3]; 300 mg (n = 26),1 (3.8) n (%)
same,"TEAEs leading to early discontinuation of study drug: Syncope, n (%)",[3]; 300 mg (n = 26),0 n (%)
same,"TEAEs leading to early discontinuation of study drug: Vomiting, n (%)",[3]; 300 mg (n = 26),1 (3.8) n (%)
same,n (%) of subjects with Any TEAE,[3]; 300 mg (n = 26),5 (19.2) n (%)
same,n (%) of subjects with Treatment-related TEAE,[3]; 300 mg (n = 26),4 (15.4) n (%)
same,frequency of treatment-related TEAEs,[3]; 450 mg,8.3%
same,median change in alanine aminotransferase (ALT) between baseline and Day 5,[3]; 450 mg,5.0 IU/L
same,"Most frequent TEAEs: ALT increased, n (%)",[3]; 450 mg (n = 24),1 (4.2) n (%)
same,"Most frequent TEAEs: Diarrhea, n (%)",[3]; 450 mg (n = 24),0 n (%)
same,"Most frequent TEAEs: Dizziness, n (%)",[3]; 450 mg (n = 24),0 n (%)
same,"Most frequent TEAEs: Nausea, n (%)",[3]; 450 mg (n = 24),1 (4.2) n (%)
same,"Most frequent TEAEs: Vomiting, n (%)",[3]; 450 mg (n = 24),0 n (%)
same,"TEAEs leading to early discontinuation of study drug: ALT increased, n (%)",[3]; 450 mg (n = 24),1 (4.2) n (%)
same,"TEAEs leading to early discontinuation of study drug: All, n (%)",[3]; 450 mg (n = 24),1 (4.2) n (%)
same,"TEAEs leading to early discontinuation of study drug: Lipase increased, n (%)",[3]; 450 mg (n = 24),0 n (%)
same,"TEAEs leading to early discontinuation of study drug: Nausea, n (%)",[3]; 450 mg (n = 24),0 n (%)
same,"TEAEs leading to early discontinuation of study drug: Syncope, n (%)",[3]; 450 mg (n = 24),0 n (%)
same,"TEAEs leading to early discontinuation of study drug: Vomiting, n (%)",[3]; 450 mg (n = 24),0 n (%)
same,n (%) of subjects with Any TEAE,[3]; 450 mg (n = 24),3 (12.5) n (%)
same,n (%) of subjects with Treatment-related TEAE,[3]; 450 mg (n = 24),2 (8.3) n (%)
same,frequency of treatment-related TEAEs,[3]; 600 mg,25.0%
same,median change in alanine aminotransferase (ALT) between baseline and Day 5,[3]; 600 mg,19.5 IU/L
same,reports of diarrhea,[3]; 600 mg,2
same,"Most frequent TEAEs: ALT increased, n (%)",[3]; 600 mg (n = 24),1 (4.2) n (%)
same,"Most frequent TEAEs: Diarrhea, n (%)",[3]; 600 mg (n = 24),2 (8.3) n (%)
same,"Most frequent TEAEs: Dizziness, n (%)",[3]; 600 mg (n = 24),1 (4.2) n (%)
same,"Most frequent TEAEs: Nausea, n (%)",[3]; 600 mg (n = 24),4 (16.7) n (%)
same,"Most frequent TEAEs: Vomiting, n (%)",[3]; 600 mg (n = 24),1 (4.2) n (%)
same,"TEAEs leading to early discontinuation of study drug: ALT increased, n (%)",[3]; 600 mg (n = 24),0 n (%)
same,"TEAEs leading to early discontinuation of study drug: All, n (%)",[3]; 600 mg (n = 24),1 (4.2) n (%)
same,"TEAEs leading to early discontinuation of study drug: Lipase increased, n (%)",[3]; 600 mg (n = 24),1 (4.2) n (%)
same,"TEAEs leading to early discontinuation of study drug: Nausea, n (%)",[3]; 600 mg (n = 24),0 n (%)
same,"TEAEs leading to early discontinuation of study drug: Syncope, n (%)",[3]; 600 mg (n = 24),0 n (%)
same,"TEAEs leading to early discontinuation of study drug: Vomiting, n (%)",[3]; 600 mg (n = 24),0 n (%)
same,n (%) of subjects with Any TEAE,[3]; 600 mg (n = 24),6 (25.0) n (%)
same,n (%) of subjects with Treatment-related TEAE,[3]; 600 mg (n = 24),6 (25.0) n (%)
same,TEAE nausea,[3]; 600 mg group,16.7%
same,tolerability of multiple doses,"[3]; 300, 450 and 600 mg once daily for 5 days",generally well-tolerated
same,TEAE nausea,[3]; 300 and 450 mg dose groups,≤ 7.7%
same,"Most frequent TEAEs: ALT increased, n (%)",[3]; Omadacycline Overall (n = 26),2 (7.7) n (%)
same,"Most frequent TEAEs: Diarrhea, n (%)",[3]; Omadacycline Overall (n = 26),2 (7.7) n (%)
same,"Most frequent TEAEs: Dizziness, n (%)",[3]; Omadacycline Overall (n = 26),3 (11.5) n (%)
same,"Most frequent TEAEs: Nausea, n (%)",[3]; Omadacycline Overall (n = 26),6 (23.1) n (%)
same,"Most frequent TEAEs: Vomiting, n (%)",[3]; Omadacycline Overall (n = 26),3 (11.5) n (%)
same,"TEAEs leading to early discontinuation of study drug: ALT increased, n (%)",[3]; Omadacycline Overall (n = 26),1 (3.8) n (%)
same,"TEAEs leading to early discontinuation of study drug: All, n (%)",[3]; Omadacycline Overall (n = 26),3 (11.5) n (%)
same,"TEAEs leading to early discontinuation of study drug: Lipase increased, n (%)",[3]; Omadacycline Overall (n = 26),1 (3.8) n (%)
same,"TEAEs leading to early discontinuation of study drug: Nausea, n (%)",[3]; Omadacycline Overall (n = 26),1 (3.8) n (%)
same,"TEAEs leading to early discontinuation of study drug: Syncope, n (%)",[3]; Omadacycline Overall (n = 26),0 n (%)
same,"TEAEs leading to early discontinuation of study drug: Vomiting, n (%)",[3]; Omadacycline Overall (n = 26),1 (3.8) n (%)
same,n (%) of subjects with Any TEAE,[3]; Omadacycline Overall (n = 26),10 (38.5) n (%)
same,n (%) of subjects with Treatment-related TEAE,[3]; Omadacycline Overall (n = 26),9 (34.6) n (%)
same,serious TEAEs (SAEs),[3]; multiple oral doses 300-600 mg,no serious TEAEs
same,severity of TEAEs,[3]; multiple oral doses 300-600 mg,either mild or moderate
same,highest individual ALT value,[3]; [4],150 IU/L
same,highest individual ALT value above the upper limit of normal,[3]; [4],2.7 fold
same,subjects reporting TEAEs,"[3]; subjects that received omadacycline (300, 450, 600 mg)",38.5%
